“Also recorded” adds a separate entry of the source. Values belong to the compound of their own block, whether it stands above or below them.
Assays:
P19 stem cells = experiment: Sulforhodamine B cell proliferation/survival assay, P19 stem cells; format: cell-based, mouse; details: for % Control (quantity of surviving cells as percentage of DMSO-only control): P19 stem cells, 20 μg/ml, 48 h exposure; for inhibition of P19 cell growth (in words): single dose of 20 μg/ml, 48 hours
Description: FIG. 2 is a graph showing the results of dose-response studies comparing the effectiveness of extracts from four species of birch (B. papyrifera, B. kenaica, B. neoalaskana, and B. pendula) with betulinic acid (BetA) and betulin 3-caffeate (Bet3C). Concentrations of from 2.5 to 20 μg/ml were added to cultures of P19 stem cells for 48 h, and the numbers of surviving cells measured using sulforhodamine B assays.
(§1) Cell Proliferation Measurements: Sulforhodamine B assays (Skehan, P. et al. (1990). J. Natl. Cancer Inst. 82:1107-1112.) were conducted to measure the effects of compounds and extractives of interest on the proliferation of a number of different cell lines. Cell lines used include mouse P19 and human NT2-D1 stem cells, mouse K1735-M2 melanoma cells, human LNCaP and PC-3 prostate cancer cells, and human MCF-7 breast cancer cells. Other cell lines include normal human fibroblast BJ cells, human Caov-3 ovarian cancer cells, human U87 brain glioma cells, human HL-60 acute promyelocytic leukemia cells, human MOLT-4 acute lymphoblastic leukemia cells, human U937 histiocytic lymphoma cells, human MDA-MB-231 breast cancer cells, C2BBe1 cells (a clone of the human colorectal cell line Caco-2), human K562 chronic myeloid leukemia cells, human WM32-11 primary melanoma cells with radial growth phase-like phenotype (early primary melanoma), and human WM793 melanoma cells with vertical growth phase-like phenotype. Cells were seeded at a concentration of 2.5×10^4 cells/ml in 24-well plates, and allowed to recover for 2 days prior to drug addition. Test compounds were prepared in most instances as stock solutions in dimethylsulfoxide (DMSO). Compounds were then added to multiwell plates at final concentrations of […]. Control wells received an equivalent amount of vehicle (DMSO) only. After 1-3 days of incubation, the culture medium was decanted from each plate, and the cells fixed with cold (−10° C.) absolute methanol containing 1% acetic acid for at least 30 minutes. Subsequently, the methanol was decanted, and the plate air-dried. Sulforhodamine B (0.5% in 1% acetic acid) was added to each well, and the plate incubated at 35° C. for 1 hour. Plates were rinsed with 1% acetic acid, air-dried, and the bound dye eluted with 1 ml of 10 mM Tris buffer, pH 10. The absorbance was measured in a spectrophotometer at 540 nm; the amount of dye released is proportional to the number of cells present in the dish, and is a reliable indicator of cell proliferation.
A single dose of 20 μg/ml of either extract, pure compound, or a mixture of compounds, was added to cultures of P19 stem cells, and the growth of the cells measured after 48 hours of treatment (FIG. 1).
(§2) Stock solutions of compounds and extracts were diluted to 2 mg/ml in dimethylsulfoxide (DMSO), and subsequently added to samples at a final concentration of 20 μg/ml (10 μl/ml of a 2 mg/ml stock solution); controls received an equivalent amount of DMSO only (10 μl/ml). After 48 h, samples were fixed with methanol-acetic acid, and the quantity of surviving cells determined by sulforhodamine B staining methods (discussed above). The quantity of surviving cells is expressed as a percentage of the control (DMSO-only) cultures, which was set to 100%. […] Extracts and betulinic acid induce a relatively modest increase in the numbers of dead cells present the cultures (about 10-40%).

[1] = Light absorption analysis by UV-VIS spectrophotometer; format: physicochemical; details: for Light absorption range (λ, nm): UV-VIS spectrophotometer
From the text: Sunscreens block the cutaneous absorption of UV radiation at 280-315 nm.

K1735-M2 melanoma cells = experiment: Sulforhodamine B cell proliferation assay, K1735-M2 melanoma cells; format: cell-based, mouse; details: 2.5-10 mg/ml, 48 h
Description: (§3) FIG. 3 is a bar graph showing a comparison of the effects of betulin 3-caffeate on other types of malignant cancer cell lines. P19 stem cells, K1735-M2 melanoma cells and MCF-7 breast cancer cells were treated with […] betulinic acid or betulin-3-caffeate for 48 h and cell quantity determined by sulforhodamine B assays.
as §1, with “After 1-3 days of incubation, the culture medium was decanted from each plate, and the cells fixed with cold (−10° C.) absolute methanol containing 1% acetic acid for at least 30 minutes. Subsequently, the methanol was decanted, and the plate air-dried. Sulforhodamine B (0.5% in 1% acetic acid) was added to each well, and the plate incubated at 35° C. for 1 hour. Plates were rinsed with 1% acetic acid, air-dried, and the bound dye eluted with 1 ml of 10 mM Tris buffer, pH 10.” left out

[2] = system: MCF-7 breast cancer cells; experiment: Sulforhodamine B cell proliferation assay, MCF-7 breast cancer cells; format: cell-based, human; details: 2.5-10 mg/ml, 48 h
Description: as §3
as §1, with “After 1-3 days of incubation, the culture medium was decanted from each plate, and the cells fixed with cold (−10° C.) absolute methanol containing 1% acetic acid for at least 30 minutes. Subsequently, the methanol was decanted, and the plate air-dried. Sulforhodamine B (0.5% in 1% acetic acid) was added to each well, and the plate incubated at 35° C. for 1 hour. Plates were rinsed with 1% acetic acid, air-dried, and the bound dye eluted with 1 ml of 10 mM Tris buffer, pH 10.” left out

P19 cells = experiment: P19 cell death by propidium iodide labeling with flow cytometry; format: cell-based, mouse; details: 48 hours
From the text: FIG. 4 is a bar graph showing measurements of P19 cell death induced by extracts, betulinic acid (BetA) and betulin 3-caffeate (Bet3C). Because the reduction in cell numbers detected by sulforhodamine B assays could result from either an inhibition of cell proliferation or an induction of cell death (or a combination of both), propidium iodide labeling was used in conjunction with flow cytometry to detect dead and dying cells with compromised plasma membranes.
as §2

Compound: O=C(O)CCCCCCCCCCCCCCCCCCCCCO [Sample 12, 22-hydroxydocosanoic acid]
- % Control (quantity of surviving cells as percentage of DMSO-only control) (P19 stem cells): 51.4%

Compound: CC1(C)CC[C@]2(C(=O)O)CC[C@]3(C)C(=CC[C@@H]4[C@@]5(C)CC[C@H](O)C(C)(C)[C@@H]5CC[C@]43C)[C@@H]2C1 [Sample 15, Oleanolic acid]
- % Control (quantity of surviving cells as percentage of DMSO-only control) (P19 stem cells): 22.3%
- inhibition of P19 cell growth (in words) (P19 stem cells): less effective

Compound: C=C(C)[C@@H]1CC[C@]2(CO)CC[C@]3(C)C(CC[C@@H]4[C@@]5(C)CC[C@H](O)C(C)(C)C5CC[C@]43C)C12 (stereo partly drawn) [Sample 17, 3β,28-dihydroxy-lup-20(29)-ene]
- % Control (quantity of surviving cells as percentage of DMSO-only control) (P19 stem cells): 14.8%
- inhibition of P19 cell growth (in words) (P19 stem cells): less effective

- Light absorption range (λ, nm) [1]: 210-360 nm
- ε (molar extinction coefficient) ([1]; at λmax 220): 1230
- ε (molar extinction coefficient) ([1]; at λmax 245): 882
- ε (molar extinction coefficient) ([1]; at λmax 305): 1174
- ε (molar extinction coefficient) ([1]; at λmax 325): 1353
Compound: betulin 3,28,30-tricaffeate

Compound: Treo-hydroxyoctadecanoic acid [Sample 11]
- % Control (quantity of surviving cells as percentage of DMSO-only control) (P19 stem cells): 67.3%

Compound: O=C(O)CCCCCCCCCCCCCCCCCCCCC(=O)O [Sample 9, Docosandioic acid]
- % Control (quantity of surviving cells as percentage of DMSO-only control) (P19 stem cells): 61.5%

Compound: C=C(C)[C@@H]1CC[C@]2(COC(=O)/C=C/c3ccc(O)c(O)c3)CC[C@]3(C)[C@H](CC[C@@H]4[C@@]5(C)CC[C@H](OC(=O)/C=C/c6ccc(O)c(O)c6)C(C)(C)[C@@H]5CC[C@]43C)[C@@H]12 [betulin-3,28-dicaffeate]
- Light absorption range (λ, nm) [1]: 200-350 nm
- ε (molar extinction coefficient) ([1]; at λmax 220): 13978
- ε (molar extinction coefficient) ([1]; at λmax 245): 10018
- ε (molar extinction coefficient) ([1]; at λmax 305): 13341
- ε (molar extinction coefficient) ([1]; at λmax 325): 15375

Compound: C=C(C)[C@@H]1CC[C@]2(COC(=O)/C=C/c3ccc(O)c(O)c3)CC[C@]3(C)[C@H](CC[C@@H]4[C@@]5(C)CC[C@H](O)C(C)(C)[C@@H]5CC[C@]43C)[C@@H]12 [betulin-28-caffeate]
- Light absorption range (λ, nm) [1]: 210-360 nm
- ε (molar extinction coefficient) ([1]; at λmax 220): 1300
- ε (molar extinction coefficient) ([1]; at λmax 245): 875
- ε (molar extinction coefficient) ([1]; at λmax 305): 1190
- ε (molar extinction coefficient) ([1]; at λmax 325): 1380

Compound: C=C(C)[C@@H]1CC[C@]2(C)CC[C@]3(C)[C@H](CC[C@@H]4[C@@]5(C)CC[C@H](O)C(C)(C)[C@@H]5CC[C@]43C)[C@@H]12 [Sample 16, Lupeol]
- % Control (quantity of surviving cells as percentage of DMSO-only control) (P19 stem cells): 58.9%
- inhibition of P19 cell growth (in words) (P19 stem cells): less effective

Compound: C=C(C)[C@@H]1CC[C@]2(C(=O)O)CC[C@]3(C)C(CC[C@@H]4[C@@]5(C)CC[C@H](O)C(C)(C)C5CC[C@]43C)C12 (stereo partly drawn) [Sample 14, 3(β)-hydroxy-20(29)-lupaene-28-oic acid, reference compound]
- % Control (quantity of surviving cells as percentage of DMSO-only control) (P19 stem cells): 1.3%
- inhibition of P19 cell growth (in words) (P19 stem cells; listed as betulinic acid): even more profoundly inhibited cell growth; also recorded: among the most active compounds in inhibiting cell proliferation
- inhibition of M2 melanoma cell growth (in words) (K1735-M2 melanoma cells): significantly inhibited
- inhibition of MCF-7 breast cancer cell growth (in words) [2]: do not appear to be as sensitive
- increase in the quantity of dead cells present in the cultures (P19 cells): 10-40%

Compound: O=C(O)CCCCCCC/C=C\CCCCCCCCO [Sample 13, Cis-18-hydroxyoctadec-9-enoic acid]
- % Control (quantity of surviving cells as percentage of DMSO-only control) (P19 stem cells): 65.9%

Compound: C=C(C)[C@@H]1CC[C@]2(CO)CC[C@]3(C)[C@H](CC[C@@H]4[C@@]5(C)CC[C@H](OC(=O)/C=C/c6ccc(O)c(O)c6)C(C)(C)[C@@H]5CC[C@]43C)[C@@H]12 [betulin-3-caffeate, (3β)-3-Caffeyloxylup-20(29)-en-28-ol]
- Light absorption range (λ, nm) [1]: 210-360 nm
- ε (molar extinction coefficient) ([1]; at λmax 220): 2280
- ε (molar extinction coefficient) ([1]; at λmax 245): 1795
- ε (molar extinction coefficient) ([1]; at λmax 305): 2575
- ε (molar extinction coefficient) ([1]; at λmax 325): 2865
- inhibition of P19 stem cell growth in dose response studies (in words) (P19 stem cells; 2.5 to 20 μg/ml, 48 h): more effectively inhibits P19 stem cell growth
- % Control (quantity of surviving cells as percentage of DMSO-only control) (P19 stem cells): 1.2%
- potency in inhibiting growth of P19 cells relative to betulinic acid (P19 stem cells; concentrations of 5-10 μg/ml, 48 h): 4 to 5 fold
- inhibition of P19 cell growth (in words) (P19 stem cells): even more profoundly inhibited cell growth
- inhibition of P19 cell growth (in words) (P19 stem cells; listed as betulin 3-caffeate): among the most active compounds in inhibiting cell proliferation
- inhibition of M2 melanoma cell growth (in words) (K1735-M2 melanoma cells): significantly inhibited
- effectiveness in inhibiting cell growth compared with betulinic acid (in words) (K1735-M2 melanoma cells; K1735-M2 melanoma cells): more effective in inhibiting cell growth than betulinic acid
- inhibition of MCF-7 breast cancer cell growth (in words) [2]: do not appear to be as sensitive
- effectiveness in inhibiting cell growth compared with betulinic acid (in words) ([2]; MCF-7 cells): more effective in inhibiting cell growth than betulinic acid
- increase in the quantity of dead cells present in the cultures (P19 cells): ~200%

Compound: Hydroxyoctadecanoic acid [Sample 10]
- % Control (quantity of surviving cells as percentage of DMSO-only control) (P19 stem cells): 82.6%

From patent publication US20090136566A1, “THERAPEUTIC TRITERPENOIDS” (Regents of the University of Minnesota, priority 2006, published 2009)
